According to patent publication US11535599B2, “Benzisoxazole derivative” (Sumitomo Pharma Co., Ltd., priority 2020, dated 2022):

Legend:
[1] = system: levodopa-induced dyskinesia in 6-OHDA unilateral lesion model; experiment: Effect for inhibiting levodopa-induced dyskinesia; format: in vivo, rat; settings: Examples 30 or 100 mg/kg, rasagiline 0.2 or 0.6 mg/kg, daily for two weeks
From the text: A unilateral lesion model of nigrostriatal dopamine neuron induced with 6-hydroxydopamine (6-OHDA) is broadly used for evaluating the drug efficacy for treating Parkinson's disease, as mentioned in Test 2. In addition, it is known that dyskinesia is developed when the present model receives repetitive administration of levodopa, which is similar to the phenomenon that patients of Parkinson's disease who have received long-term administration of levodopa develop dyskinesia. With the present model, the effect of the present compound on the dyskinesia induced by repetitive administration of levodopa was evaluated. As shown in Test 2, a unilateral lesion model of nigrostriatal dopamine neuron was prepared. One day before starting the repetitive administration of levodopa, levodopa methyl ester hydrochloride (5.86 mg/kg) containing benserazide hydrochloride ([…]) (whose ratio was 4:1 in terms of free form) was intraperitoneally administered to the model, and the rotational behavior of the model was observed from 20 minutes to 140 minutes after the administration. The models were classified considering three factors of the total rotation number (20-140 minutes after the administration), the later term of the rotation (120-140 minutes after the administration), and the rotational duration, so that the dispersion of each group could be equal. Two days after the classification, the repetitive administration of levodopa methyl ester hydrochloride (6 mg/kg) and benserazide hydrochloride (12 mg/kg) once a day for two weeks was started. […] The evaluation of dyskinesia was done after one week and two weeks of the repetitive administration. […]

[2] = system: harmaline-induced essential tremor model; experiment: Anti-tremor effect in harmaline-induced essential tremor model; format: in vivo, mouse; settings: Examples 1, 13: 25 or 50 mg/kg, Example 14: 3.125-25 mg/kg oral; β-propranolol 10 mg/kg i.p.
Description: As an animal model of essential tremor, an animal administrated with harmaline is broadly used in its evaluation test. […] The effect of the present compounds for harmaline-acute-administration-induced tremor was studied. To male Crl: CD1 mice (6-7 weeks old) (CHARLES RIVER LABORATORIES JAPAN, INC.), harmaline (30 mg/kg) was intraperitoneally administered to induce tremor. The present compound (Example 1 (25 mg/kg or 50 mg/kg), Example 13 (25 mg/kg or 50 mg/kg), or Example 14 (3.125 mg/kg, 6.25 mg/kg, 12.5 mg/kg, or 25 mg/kg)) was orally administered to the mouse one hour before the administration of harmaline. And, saline or β-propranolol (10 mg/kg) which is a positive control compound was intraperitoneally administered to the mouse 20 minutes before the administration of harmaline. 35 minutes before the administration of harmaline, the mouse was put into a measurement cage (an acrylic cylinder set in a horizontal direction, φ 65 mm, length 145 mm), one cage to one mouse, said measurement cage was in a soundproof box of a startle response instrument (O'hara & Co., Ltd., Tokyo). The trembling that the mouse gave were recorded over time as tremor data. The animal was put into cage, and the data were recorded for 20 minutes just before (PRE) and just after (POST) the administration of harmaline. The time-series signal data were analyzed about frequency with an analysis software, VitalTracer and BIMUTAS II-A (both, Kissei Comtech Co., Ltd., Matsumoto-shi). At 12-15 Hz or 12-18 Hz as a frequency which increases with tremor, the spectrum amounts were extracted, and the tremor intensity T of each subject was calculated according to the following formula. T=POST/PRE

[3] = system: oxaliplatin chemotherapy-induced peripheral neuropathy model; experiment: Anti-allodynia effect in chemotherapy-induced peripheral neuropathy model (acetone test); format: in vivo, rat; settings: Example 13 100 mg/kg oral once a day 17 times; duloxetine 30 mg/kg oral single
From the text: As one of chemotherapy-induced peripheral neuropathy, sensory disturbance due to neuropathy caused by a platinating agent that is an anticancer agent such as cisplatin and oxaliplatin is known, and the symptom is difficult to be recovered even after the medication is discontinued. The therapeutic effect for sensory disturbance caused by repetitive administration of oxaliplatin was studied in the present test.
To male Crl: CD (SD) rats (7 weeks old) (CHARLES RIVER LABORATORIES JAPAN, INC.), oxaliplatin (5 mg/kg) was intraperitoneally administered for the two consecutive days in a week, totally 6 times, to prepare chemotherapy-induced peripheral neuropathy models. The compound of Example 13 (100 mg/kg) was repeatedly orally administered once a day, totally 17 times. […] In the acetone test, 0.1 mL of acetone was sprayed to the foot sole of the rat hind paw, and the reaction was evaluated according a scoring (Cold Score). When there was no reaction for 20 seconds after spraying acetone, Score 0 was recorded and the observation was stopped. When there was any reaction for the 20 seconds, the observation was continued until 40 seconds after spraying, and the score was recorded according to the evaluation scale. The acetone spray was done twice each for right and left hind paws, and the total score was calculated. […]

[4] = system: unilateral lesion model of nigrostriatal dopamine neuron induced with 6-OHDA; experiment: Anti-tremor effect in 6-OHDA unilateral lesion model; format: in vivo, rat; settings: 3 mg/kg oral, counted 10 minutes one hour later
From the text: A unilateral lesion model of nigrostriatal dopamine neuron induced with 6-OHDA is broadly used for evaluating the drug efficacy for treating Parkinson's disease, as shown in Test 3. In addition, the present model is known to present with jaw tremor which corresponds to the tremor frequency in a patient of Parkinson's disease, thus which is also expected to be a tremor model in Parkinson's disease. With the present model, the effect of the present compound for inhibiting the tremor in Parkinson's disease was evaluated. According to the procedure described in Test 3, a unilateral lesion model of nigrostriatal dopamine neuron was prepared. The compound of Example 13 (3 mg/kg) was orally administered to the model rat. One hour later, the number of tremulous jaw movements was counted for 10 minutes.

Compound | dyskinesia induced by repetitive administration of levodopa (AIMS score) [1] | harmaline-induced tremor intensity [2] | Cold Score in acetone test [3] | number of tremulous jaw movements [4]
C[C@H](c1noc2ccccc12)S(N)(=O)=O [Example 13, (1R)-1-(1,2-benzoxazol-3-yl)ethane-1-sulfonamide] | the onset of dyskinesia induced by repetitive administration of levodopa was inhibited | inhibited harmaline-induced tremor | significantly lower Cold Score | significantly decreased the number of tremulous jaw movements per unit time
CC(c1noc2ccccc12)S(N)(=O)=O (stereo not drawn) [Example 1, 1-(Benzo[d]isoxazol-3-yl)ethane-1-sulfonamide] | the onset of dyskinesia induced by repetitive administration of levodopa was inhibited | inhibited harmaline-induced tremor |  | 
